Measured values: PMC12216609, “Inhibitors of eIF1A-ribosome interaction unveil uORF-dependent regulation of translation initiation and antitumor and antiviral effects” (The EMBO Journal, 2025)
Values joined by “and” are separate entries in the source; they are usually repeats but may differ in a detail not shown here. Identical values can stand only once. Like-named read-outs stand apart in the source and are kept apart here.

Assays:
[1] = system: IRF7 5'UTR firefly luciferase reporter in HEK293T cells; settings: for Reference vs IRF7 (Final data, Fig. 1E): 1/Result, relative to DMSO; for LONG (summary - All), normalized to DMSO / Long: Normalized to average DMSO: Long reporter; for LONG (summary - All), normalized to DMSO / SHORT (summary - All), normalized to DMSO: individual replicates, outliers excluded, DMSO = 1; for Long 5'UTR reporter luciferase activity, normalized to DMSO (=1), single replicates: left data block (Long), source data of Fig 1C; for average ( long vs short ratio): summary - All; for Long: Normalized to average DMSO: includes values excluded as outliers;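 for all read-outs here: luciferase signal corrected by a co-transfected GFP reporter for transfection efficiency, read after overnight compound exposure, with Long and Short reporters differing in 5'UTR length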
[2] = biological target: T1, RPS10 (Homo sapiens, UniProt P46783); format: binding
T1 construct: made in house; host or cells: E. coli BL-21

[3] = system: CUG/GUG vs AUG start codon luciferase reporters in HEK293T cells; experiment: Near-cognate AUG starting codon fidelity reporter assay (GUG, CUG vs AUG); format: cell-based; settings: for CUG vs AUG (%): CUG start codon reporter relative to AUG reporter (AUG = 100); for CUG vs AUG (%) / GUG vs AUG (%): single-experiment calculation; for GUG vs AUG (%): GUG start codon reporter relative to AUG reporter (AUG = 100); for average CUG and GUG / average CUG and GUG relative to DMSO / CUG Average / GUG Average: NUG experiment; for CUG Average: CUG vs AUG reporter; for GUG Average: GUG vs AUG reporter; for NUG (Final data, Fig. 1E): average CUG and GUG relative to DMSO, 20 µM overnight; for GUG vs AUG data (%): individual repeat; for GUG vs AUG (%) Average: summary average of repeats, DMSO control average […]
[4] = system: cap-proximal AUG GFP reporter in HEK293T cells; format: cell-based; settings: GFP WB densitometry; 20 µM overnight; dmso 0.965946;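 note: ratio of upstream to downstream AUG initiation products on GFP Western blot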
[5] = read-out: IC50 (line under RPS10 binding data)
[6] = summary table, fluorescence binding assay, read-out: IC50 concentration (µM), RPS10
[7] = compound at 20uM (summary head)
[8] = raw data calculation of one experiment, GFP normalized, AUG set to 100, compound marked (20)
[9] = data section, GFP-corrected, 20 µM, per experiment
[10] = compound at 10uM (summary head)

Row | SMILES | Reference vs IRF7 (Final data, Fig. 1E) ([1]; 20 µM) | LONG (summary - All), normalized to DMSO ([1]; 20 µM) | SHORT (summary - All), normalized to DMSO ([1]; Short reporter, 20 µM) | average ( long vs short ratio) ([1]; 20 µM) | RPS10 fluorescence ratio to control ([2]; 1Ai conc. 0.25 uM) | RPS10 fluorescence ratio to control ([2]; 1Ai conc. 0.5 uM) | RPS10 fluorescence ratio to control ([2]; 1Ai conc. 1 uM) | RPS10 fluorescence ratio to control ([2]; 1Ai conc. 2 uM) | RPS10 fluorescence ratio to control ([2]; 1Ai conc. 4 uM) | RPS10 fluorescence ratio to control ([2]; 1Ai conc. 8 uM) | RPS10 fluorescence ratio to control ([2]; 1Ai conc. 16 uM) | RPS10 fluorescence ratio to control ([2]; 1Ai conc. 32 uM) | IC50 [2, 5] [µM] | IC50 [2, 6] [µM] | average CUG and GUG [3] | average CUG and GUG relative to DMSO [3] | CUG Average [3] | GUG Average [3] | NUG (Final data, Fig. 1E) [3] | US/DS ratio, average [4] | also measured
1 | Cn1c(=O)c2ccccc2n2c(CNC(c3ccc4c(c3)CCC4)c3cccs3)nnc12 (stereo not shown) [1Ai-7688] | 1.509 | 0.23 and 0.0442 and 0.78 and 0.63 and 1.12 and 0.61 | 0.19 and 0.05 and 1.25 and 0.79 and 1.33 and 1.55 | 0.663 | 1.264 | 2.089 | 1.116 | 1.353 | 1.556 | 0.3218 | 0.1412 | 0.0755 | 4.5 | 4.5 | 3.434 | 0.7613 | 5.347 | 1.52 | 0.761 | 0.7504 | Long 5'UTR reporter luciferase activity, normalized to DMSO (=1), single replicates ([1]; compound at 20 µM): 0.2324 and 0.04416 and 0.7839 and 0.6346 and 1.115 and 0.6102; IC50 ([2]; read-out: RPS10 IC50): 4.5 µM; CUG vs AUG (%) [3, 7]: 6.15%; GUG vs AUG (%) [3, 7]: 1.391%; GUG vs AUG data (%) ([3]; compound at 20uM): 1.96% and 1.30% and 1.49% and 1.33%; GUG vs AUG (%) Average ([3]; compound at 20uM): 1.52%; calculation: CUG (AUG = 100) [3, 8]: 4.522; calculation: GUG (AUG = 100) [3, 8]: 1.611
2 | O=C(COc1ccccc1[N+](=O)[O-])NCc1ccc(-c2ccc(Br)cc2)o1 [1Ai-4700] | 2.452 | 0.84 and 0.38 and 0.21 and 0.60 | 1.10 and 0.65 and 2.34 and 0.87 | 0.408 | 1 | 0.9948 | 1.113 | 1.071 | 0.9943 | 0.904 | 0.762 | 0.6123 | 4.9 | 4.9 | 6.461 | 1.433 | 9.432 | 3.49 | 1.433 | 0.7947 | RPS10 fluorescence ratio to control ([2]; 1Ai conc. 64 uM): 0.5202; RPS10 fluorescence ratio to control ([2]; 1Ai conc. 256 uM): 0.4416; IC50 ([2]; read-out: RPS10 IC50): 4.9 µM; CUG vs AUG (%) [3, 7]: 5.455%; GUG vs AUG (%) [3, 7]: 0.6501%; GUG vs AUG data (%) ([3]; compound at 20uM): 3.85% and 2.62% and 3.02% and 4.47%; GUG vs AUG (%) Average ([3]; compound at 20uM): 3.49%
3 | Cc1ccc(C)n1-c1cc([N+](=O)[O-])ccc1N1CCN(C(=O)c2ccccc2)CC1 [1Ai-9008] | 0.775 | 0.81 and 0.44 and 0.52 and 0.48 | 0.66 and 0.59 and 0.24 and 0.26 | 1.290 | 1 | 0.9583 | 0.9477 | 0.9687 | 0.9804 | 0.9597 | 0.9394 | 1.009 | 9.9 | 9.9 | 8.448 | 1.873 | 12.6998 | 4.196 | 1.873 | 0.5847 | Long: Normalized to average DMSO [1, 9]: 0.8135 and 0.4384 and 0.5246 and 0.4822; RPS10 fluorescence ratio to control ([2]; 1Ai conc. 256 uM): 1.212; IC50 ([2]; read-out: RPS10 IC50): 9.9 µM; CUG vs AUG (%) [3, 7]: 13.0714%; GUG vs AUG (%) [3, 7]: 3.675%; GUG vs AUG data (%) ([3]; compound at 20uM): 4.42% and 4.68% and 2.86% and 4.83%; GUG vs AUG (%) Average ([3]; compound at 20uM): 4.20%
4 | O=c1cc(CN2CCOCC2)occ1OCCCCCSc1ccnc2cc(C(F)(F)F)ccc12 [1Ai-5730] | 1.720 |  |  |  | 1 | 0.9752 | 0.9984 | 0.9868 | 1.11 | 1.2215 | 1.217 | 1.212 | 22.1 | 22.1 | 3.9567 | 0.8773 | 6.145 | 1.768 | 0.877 | 0.4467 | LONG (summary - All), normalized to DMSO ([1]; 10 µM): 0.65 and 0.52 and 0.40 and 0.70; SHORT (summary - All), normalized to DMSO ([1]; Short reporter, 10 µM): 0.89 and 1.17 and 0.87; Long 5'UTR reporter luciferase activity, normalized to DMSO (=1), single replicates ([1]; compound at 10 µM): 0.6956; Short: Normalized to average DMSO ([1]; data section, Short reporter, GFP-corrected, 10 µM, per experiment): 0.892 and 1.021 and 1.1679; average ( long vs short ratio) ([1]; 10 µM): 0.581; RPS10 fluorescence ratio to control ([2]; 1Ai conc. 256 uM): 1.367; IC50 ([2]; read-out: RPS10 IC50): 22.1 µM; CUG vs AUG (%) [3, 10]: 9.994%; GUG vs AUG (%) [3, 10]: 3.756%; GUG vs AUG data (%) ([3]; compound at 10uM): 1.66% and 2.32% and 1.73% and 1.38%; GUG vs AUG (%) Average ([3]; compound at 10uM): 1.77%
5 | O=S(=O)(c1ccccc1)N1CCN(C2c3ccccc3-c3ccccc32)CC1 [1Ai-9025] | 1.762 | 0.59 and 0.94 and 0.66 and 0.50 | 1.30 and 0.73 and 1.51 | 0.568 |  |  |  |  |  |  |  |  |  | 4.8 | 4.366 | 0.9681 | 6.84 | 1.892 | 0.968 | 0.7517 | Long: Normalized to average DMSO [1, 9]: 0.5873 and 0.9413 and 0.6597 and 0.4965; GUG vs AUG data (%) ([3]; compound at 20uM): 2.56% and 1.57% and 2.32% and 1.11%; GUG vs AUG (%) Average ([3]; compound at 20uM): 1.89%
6 | Cc1cc(-n2c(C)cc(-c3csc(N)n3)c2C)no1 [1Ai-6464] | 2.824 | 0.0351 and 0.33 and 0.45 and 0.34 | 0.16 and 1.35 and 0.67 and 1.06 | 0.354 | 0.9293 | 0.9332 | 0.9643 | 0.9061 | 0.8558 | 0.7733 | 0.6954 | 0.5591 | 6.4 | 6.4 | 3.765 | 0.8347 | 6.092 | 1.4368 | 0.835 | 0.6968 | RPS10 fluorescence ratio to control ([2]; 1Ai conc. 64 uM): 0.4769; RPS10 fluorescence ratio to control ([2]; 1Ai conc. 256 uM): 0.3869; IC50 ([2]; read-out: RPS10 IC50): 6.4 µM; CUG vs AUG (%) [3, 7]: 6.312%; GUG vs AUG (%) [3, 7]: 1.439%; GUG vs AUG data (%) ([3]; compound at 20uM): 1.40% and 1.10% and 1.81% and 1.45%; GUG vs AUG (%) Average ([3]; compound at 20uM): 1.44%
7 | CCOC(=O)c1ccsc1NC(=O)CN1C(=O)NC(C)(c2cccc3ccccc23)C1=O (stereo not shown) [1Ai-1861] | 1.411 | 0.0542 and 0.33 and 0.67 and 0.24 | 0.28 and 0.35 and 0.52 and 0.68 | 0.709 | 1 | 0.8226 | 0.9775 | 0.7185 | 0.4957 | 0.1947 | 0.1506 | 0.08052 | 3.7 | 3.7 | 6.257 | 1.387 | 9.413 | 3.101 | 1.387 | 0.86 | RPS10 fluorescence ratio to control ([2]; 1Ai conc. 64 uM): 0.3768; RPS10 fluorescence ratio to control ([2]; 1Ai conc. 256 uM): 0.398; IC50 ([2]; read-out: RPS10 IC50): 3.7 µM; CUG vs AUG (%) [3, 7]: 14.0136%; GUG vs AUG (%) [3, 7]: 2.535%; GUG vs AUG data (%) ([3]; compound at 20uM): 2.64% and 2.15% and 3.17% and 4.44%; GUG vs AUG (%) Average ([3]; compound at 20uM): 3.10%
